Experimental data as given in patent US6281356A, “Substituted pyrroles” (Hoffmann-La Roche Inc., priority 2000, dated 2001).

system: epithelial breast carcinoma cell line (MDAMB-435); test: Antiproliferative activity (growth inhibition, MTT), epithelial breast carcinoma cell line MDAMB-435; format: cell-based; conditions: Homo sapiens, MDA-MB-435, 120 h, 5 days post drug addition, 0.1% DMSO, read-out: IC50 (growth inhibition of MDAMB-435 cells)
Experimental: The epithelial breast carcinoma cell line (MDAMB-435) was purchased from ATCC (American Type Cell Culture Collection) and was grown in culture medium as recommended by ATCC. For analysis of the effect of various compounds of formula I on the growth of these cells, the cells were plated at a concentration of 1500 cells/well in a 96 well tissue culture plate ("test plate"). The day after the cells were plated, the compounds to be analyzed were dissolved in 100% DMSO (dimethyl sulfoxide) to yield at 10 mM stock solution. Each compound was diluted in H2 O to 1 mM and was added to triplicate wells in the first row of a 96 well master plate containing medium to yield a final concentration of 40 μM. The compounds were then serially diluted in medium in the "master plate". The diluted compound(s) were then transferred to test plates containing cells. A row of vehicle "control cells" received DMSO. The final concentration of DMSO in each well was 0.1%. 5 days post drug addition, the plate was analyzed as described below.
MTT (3-(4-5 methyl thiazole-2-yl)-2,5-diphenyl tetrazolium bromide; thiazolyl blue) was added to each well to yield a final concentration of 1 mg/ml. The plate was then incubated at 37° C. for 21/2-3 hours. The MTT-containing medium was then removed and 50 μl of 100% ethanol was added to each well to dissolve the formazan. The absorbences were then read using an automated plate reader (Bio-tek microplate reader). IC50 s were calculated using the Reed and Munsch equation, see Am. J. Hygiene Vol. 27 pgs. 493-497,1938.

IC50 [nM] | SMILES
20 | Cn1cc(C2=C(c3cn(C)c4cc(N5CCOCC5)ccc34)C(=O)NC2=O)c2ccccc21 [Example 11, 3-(1-Methyl-1H-indol-3-yl)-4-(1-methyl-6-morpholin-4-yl-1H-indol-3-yl)pyrrole 2,5-dione]
12 | Cn1cc(C2=C(c3c[nH]c4cc(N5CCOCC5)ccc34)C(=O)NC2=O)c2ccc(F)cc21 [Example 12n, 3-(6-Fluoro-1-methyl-1H-indol-3-yl)-4-(6-morpholin-4-yl-1H-indol-3-yl)-pyrrole-2,5-dione]
20 | COc1ccc2c(C3=C(c4cn(C)c5cc(N6CCOCC6)ccc45)C(=O)NC3=O)cn(C)c2c1 [Example 14a, 3-(6-Methoxy-1-methyl-1H-indol-3-yl)-4-(1-methyl-6-morpholin-4-yl-1H-indol-3-yl)pyrrole-2,5-dione]
< 3 | Cn1cc(C2=C(c3c[nH]c4cc(N5CCCC5)ccc34)C(=O)NC2=O)c2ccc(Cl)cc21 [Example 12f, 3-(6-Chloro-1-methyl-1H-indol-3-yl)-4-(6-pyrrolidin-1-yl-1H-indol-3-yl)pyrrole-2,5-dione]
2 | Cn1cc(C2=C(c3c[nH]c4cc(N5CCCC5)ccc34)C(=O)NC2=O)c2ccc([N+](=O)[O-])cc21 [Example 12h, 3-(1-Methyl-6-nitro-1H-indol-3-yl)-4-(6-pyrrolidin-1-yl-1H-indol-3-yl)pyrrole-2,5-dione]
2 | Cn1cc(C2=C(c3cn(C)c4cc([N+](=O)[O-])ccc34)C(=O)NC2=O)c2ccc(N3CCCC3)cc21 [Example 12d, 3-(1-Methyl-6-nitro-1H-indol-3-yl)-4-(1-methyl-6-pyrrolidin-1-yl-1H-indol-3-yl)pyrrole-2,5-dione]
170 | COCn1cc(C2=C(c3cn(C)c4cc(F)ccc34)C(=O)NC2=O)c2ccc(N3CCOCC3)cc21 [Example 12m, 3-(6-Fluoro-1-methyl-1H-indol-3-yl)-4-(1-methoxymethyl-6-morpholin-4-yl-1H-indol-3-yl)pyrrole-2,5-dione]
80 | Cn1cc(C2=C(c3cn(C)c4cc(-c5ncc[nH]5)ccc34)C(=O)NC2=O)c2ccccc21 [Example 2e, 3-[6-(1H-Imidazol-2-yl)-1-methyl-1H-indol-3-yl]-4-(1-methyl-1H-indol-3-yl)pyrrole-2,5-dione]
60 | Cn1cc(C2=C(c3cn(C)c4cc(-n5ccnc5)ccc34)C(=O)NC2=O)c2ccccc21 [Example 7, 3-(6-imidazol-1-yl-1-methyl-1H-indol-3-yl)-4-(1-methyl-1H-indol-3-yl)-pyrrole-2,5-dione]
70 | Cn1cc(C2=C(c3cn(C)c4cc([N+](=O)[O-])ccc34)C(=O)NC2=O)c2ccc(OCCn3ccnc3)cc21 [Example 17, 3-[6-(2-Imidazol-1-yl-ethoxy)-1-methyl-1H-indol-3-yl]-4-(1-methyl-6-nitro-1H-indol-3-yl)pyrrole-2,5-dione]
50 | Cn1cc(C2=C(c3cn(C)c4cc(C(F)(F)F)ccc34)C(=O)NC2=O)c2ccc(N3CCOCC3)cc21 [Example 14e, 3-(1-Methyl-6-morpholin-4-yl-1H-indol-3-yl)-4-(1-methyl-6-trifluoromethyl-1H-indol-3-yl)pyrrole-2,5-dione]
25 | Cn1cc(C2=C(c3cn(C)c4cc(-n5cccn5)ccc34)C(=O)NC2=O)c2ccc(Br)cc21 [Example 8e, 3-(6-Bromo-1-methyl-1H-indol-3-yl)-4-(1-methyl-6-pyrazol-1-yl-1H-indol-3-yl)pyrrole-2,5-dione]
3410 | CN1CCN(c2ccc3c(C4=C(c5cn(C)c6ccccc56)C(=O)NC4=O)cn(C)c3c2)CC1 [Example 12k, 3-(1-Methyl-1H-indol-3-yl)-4-[1-methyl-6-(4-methyl-piperazin-1-yl)-1H-indol-3-yl]pyrrole-2,5-dione]
30 | Cn1ccnc1-c1ccc2c(C3=C(c4cn(C)c5cc([N+](=O)[O-])ccc45)C(=O)NC3=O)cn(C)c2c1 [Example 2c, 3-[1-Methyl-6-(1-methyl-1H-imidazol-2-yl)-1H-indol-3-yl]-4-(1-methyl-6-nitro-1H-indol-3-yl)pyrrole-2,5-dione]
80 | Cn1cc(C2=C(c3c[nH]c4ccccc34)C(=O)NC2=O)c2ccc(N3CCCC3)cc21 [Example 12i, 3-(1H-indol-3-yl)-4-(1-methyl-6-pyrrolidin-1-yl-1H-indol-3-yl)-pyrrole-2,5-dione]
20 | Cn1cc(C2=C(c3cn(C)c4cc([N+](=O)[O-])ccc34)C(=O)NC2=O)c2ccc(-c3nccs3)cc21 [Example 4c, 3-(1-Methyl-6-nitro-1H-indol-3-yl)-4-(1-methyl-6-thiazol-2-yl-1H-indol-3-yl)pyrrole-2,5-dione]

IC50 [nM] | SMILES
30 | Cn1cc(C2=C(c3cn(C)c4cc(-n5cccn5)ccc34)C(=O)NC2=O)c2ccccc21 [Example 8d, 3(1-Methyl-1H-indol-3-yl)-4-(1-methyl-6-pyrazol-1-yl-1H-indol-3-yl)pyrrole-2,5-dione]
40 | Cn1cc(C2=C(c3cn(C)c4cc([N+](=O)[O-])ccc34)C(=O)NC2=O)c2ccc(-c3ncc[nH]3)cc21 [Example 2o, 3-[6-(1H-Imidazol-2-yl)-1-methyl-1H-indol-3-yl]-4-(1-methyl-6-nitro-1H-indol-3-yl)-pyrrole-2,5-dione]
50 | Cn1cncc1-c1ccc2c(C3=C(c4cn(C)c5ccccc45)C(=O)NC3=O)cn(C)c2c1 [Example 2a, 3-(1-Methyl-1H-indol-3-yl)-4-[1-methyl-6-(3-methyl-3H-imidazol-4-yl)-1H-indol-3-yl]pyrrole-2,5-dione]
30 | Cn1cc(C2=C(c3c[nH]c4ccccc34)C(=O)NC2=O)c2ccc(-c3ccco3)cc21 [Example 2i, 3-(6-Furan-2-yl-1-methyl-1H-indol-3-yl)-4-(1H-indol-3-yl)pyrrole-2,5-dione]
80 | Cn1cc(C2=C(c3cn(C)c4cc(-c5cncnc5)ccc34)C(=O)NC2=O)c2ccccc21 [Example 19, 3-(1-Methyl-1-indol-3-yl)-4-(1-methyl-6-pyrimidin-5-yl-1H-indol-3-yl)pyrrole-2,5-dione]
10 | Cn1cc(C2=C(c3cn(C)c4cc(N5CCCC5)ccc34)C(=O)NC2=O)c2ccc(Cl)cc21 [Example 14i, 3-(6-Chloro-1-methyl-1H-indol-3-yl)-4-(1-methyl-6-pyrrolidin-1-yl-1H-indol-3-yl)pyrrole-2,5-dione]
40 | Cn1cc(C2=C(c3cn(C)c4cc(-c5ccns5)ccc34)C(=O)NC2=O)c2ccccc21 [Example 2n, 3-(6-Isothiazol-5-yl-1-methyl-1H-indol-3-yl)-4-(1-methyl-1H-indol-3-yl)-pyrrole-2,5-dione]
3 | Cn1cc(C2=C(c3c[nH]c4cc(N5CCCC5)ccc34)C(=O)NC2=O)c2ccc(F)cc21 [Example 12e, 3-(6-Fluoro-1-methyl-1H-indol-3-yl)-4-(6-pyrrolidin-1-yl-1H-indol-3-yl)pyrrole-2,5-dione]
2 | Cn1cc(C2=C(c3cn(C)c4cc(N5CCOCC5)ccc34)C(=O)NC2=O)c2ccc(Cl)cc21 [Example 14c, 3-(6-Chloro-1-methyl-1H-indol-3-yl)-4-(1-methyl-6-morpholin-4-yl-1H-indol-3-yl)pyrrole-2,5-dione]
60 | Cn1cc(C2=C(c3cn(C)c4cc(N5CCCC5)ccc34)C(=O)NC2=O)c2ccccc21 [Example 12j, 3-(1-Methyl-1H-indol-3-yl)-4-(1-methyl-6-pyrrolidin-1-yl-1H-indol-3-yl)pyrrole-2,5-dione]
40 | COc1ccc2c(C3=C(c4cn(C)c5cc(N6CCCC6)ccc45)C(=O)NC3=O)cn(C)c2c1 [Example 14g, 3-(6-Methoxy-1-methyl-1H-indol-3-yl)-4-(1-methyl-6-pyrrolidin-1-yl-1H-indol-3-yl)pyrrole-2,5-dione]
80 | Cn1cc(C2=C(c3cn(C)c4cc(C(F)(F)F)ccc34)C(=O)NC2=O)c2ccc(N3CCCC3)cc21 [Example 14h, 3-(1-Methyl-6-pyrrolidin-1-yl-1H-indol-3-yl)-4-(1-methyl-6-trifuloromethyl-1H-indol-3-yl)pyrrole-2,5-dione]
1180 | COCc1ccc2c(C3=C(c4cn(C)c5cc(N6CCOCC6)ccc45)C(=O)NC3=O)cn(C)c2c1 [Example 16, 3-(6-methoxymethyl-1-methyl-1H-indol-3-yl)-4-(1-methyl-6-morpholin-4-yl-1H-indol-3-yl)pyrrole-2,5-dione]
30 | Cn1cc(C2=C(c3cn(C)c4cc(-n5ccnc5)ccc34)C(=O)NC2=O)c2ccc(C#N)cc21 [Example 10b, 3-[4-(6-Imidazol-1-yl-1-methyl-1H-indol-3-yl)-2,5-dioxo-2,5-dihydro-1H-pyrrole-3-yl]-1-methyl-1H-indole-6-carbonitrile]
20 | Cn1cc(C2=C(c3cn(C)c4cc([N+](=O)[O-])ccc34)C(=O)NC2=O)c2ccc(-c3cccs3)cc21 [Example 4d, 3-(1-Methyl-6-nitro-1H-indol-3-yl)-4-(1-methyl-6-thiophen-2-yl-1H-indol-3yl)-pyrrole-2,5-dione]
120 | CCn1ccnc1-c1ccc2c(C3=C(c4cn(C)c5cc([N+](=O)[O-])ccc45)C(=O)NC3=O)cn(C)c2c1 [Example 2d]
